From PubChem BioAssay AID1963849 (Molecular Pharmacology Branch, DTP, NCI, 2024)

Tested on: 299254-011-R-J1-PDC complex spheroid viability
Experiment: Anticancer human tumor 299254-011-R-J1-PDC patient-derived melanoma cell line growth inhibition [POLQ]
Conditions: for IC50: curve of first compound; for viability, T/C: stronger effect = lower value
Outline: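 Complex spheroid viability model combining PDC tumour cells with endothelial (HUVEC) and MSC stromal cells. Novobiocin, ART-558 or RP6685 were tested singly and in combination with standard and investigational anticancer drugs. Each was titrated in half-log steps from near clinical Cmax, or from 10 microM where Cmax was unknown.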

[1] = second compound 0.0316 µM, first compound 0.0316 µM
[2] = second compound 0.0316 µM, first compound 0.1 µM
[3] = second compound 0.0316 µM, first compound 0.316 µM
[4] = second compound 0.0316 µM, first compound 1 µM
[5] = second compound 0.0316 µM, first compound 3.16 µM
[6] = second compound 0.0316 µM, first compound 10 µM
[7] = second compound 0.1 µM, first compound 0.0316 µM
[8] = second compound 0.1 µM, first compound 0.1 µM
[9] = second compound 0.1 µM, first compound 0.316 µM
[10] = second compound 0.1 µM, first compound 1 µM
[11] = second compound 0.1 µM, first compound 3.16 µM
[12] = second compound 0.1 µM, first compound 10 µM
[13] = second compound 0.316 µM, first compound 0.0316 µM
[14] = second compound 0.316 µM, first compound 0.1 µM
[15] = second compound 0.316 µM, first compound 0.316 µM
[16] = second compound 0.316 µM, first compound 1 µM
[17] = second compound 0.316 µM, first compound 3.16 µM
[18] = second compound 0.316 µM, first compound 10 µM
[19] = second compound 1 µM, first compound 0.0316 µM
[20] = second compound 1 µM, first compound 0.1 µM
[21] = second compound 1 µM, first compound 0.316 µM
[22] = second compound 1 µM, first compound 1 µM
[23] = second compound 1 µM, first compound 3.16 µM
[24] = second compound 1 µM, first compound 10 µM
[25] = second compound 3.16 µM, first compound 0.0316 µM
[26] = second compound 3.16 µM, first compound 0.1 µM
[27] = second compound 3.16 µM, first compound 0.316 µM
[28] = second compound 3.16 µM, first compound 1 µM
[29] = second compound 3.16 µM, first compound 3.16 µM
[30] = second compound 3.16 µM, first compound 10 µM
[31] = second compound 10 µM, first compound 0.0316 µM
[32] = second compound 10 µM, first compound 0.1 µM
[33] = second compound 10 µM, first compound 0.316 µM
[34] = second compound 10 µM, first compound 1 µM
[35] = second compound 10 µM, first compound 3.16 µM
[36] = second compound 10 µM, first compound 10 µM
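Further: spheroids exposed to drugs for one week before measurement.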
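Wherever viability, T/C is given: percent viability relative to DMSO vehicle control taken as 100%.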

SMILES: CC1COCCN1c1cc(C2(S(C)(=N)=O)CC2)nc(-c2ccnc3[nH]ccc23)n1 (stereo unspecified) + COC1C(OC(N)=O)C(O)C(Oc2ccc3c(O)c(NC(=O)c4ccc(O)c(CC=C(C)C)c4)c(=O)oc3c2C)OC1(C)C
- IC50 (second compound 0.0316 µM): 6.05 µM
- IC50 (second compound 0.1 µM): 5.77 µM
- IC50 (second compound 0.316 µM): 6.98 µM
- IC50 (second compound 1 µM): 5.46 µM
- IC50 (second compound 3.16 µM): 7.19 µM
- IC50 (second compound 10 µM): 6.75 µM
- viability, T/C [1]: 110%
- viability, T/C [2]: 116%
- viability, T/C [3]: 102%
- viability, T/C [4]: 85.3%
- viability, T/C [5]: 66.5%
- viability, T/C [6]: 38.1%
- viability, T/C [7]: 110%
- viability, T/C [8]: 95%
- viability, T/C [9]: 111%
- viability, T/C [10]: 106%
- viability, T/C [11]: 60.9%
- viability, T/C [12]: 39.9%
- viability, T/C [13]: 98.9%
- viability, T/C [14]: 98.7%
- viability, T/C [15]: 110%
- viability, T/C [16]: 106%
- viability, T/C [17]: 69.9%
- viability, T/C [18]: 41%
- viability, T/C [19]: 112%
- viability, T/C [20]: 122%
- viability, T/C [21]: 109%
- viability, T/C [22]: 85.8%
- viability, T/C [23]: 65%
- viability, T/C [24]: 35.7%
- viability, T/C [25]: 101%
- viability, T/C [26]: 122%
- viability, T/C [27]: 105%
- viability, T/C [28]: 101%
- viability, T/C [29]: 70.4%
- viability, T/C [30]: 41.8%
- viability, T/C [31]: 122%
- viability, T/C [32]: 103%
- viability, T/C [33]: 109%
- viability, T/C [34]: 90.9%
- viability, T/C [35]: 73.6%
- viability, T/C [36]: 37.6%

SMILES: CC(C)n1c(=O)n(C)c2cnc3cc(F)c(-c4ccc(OCCCN5CCCCC5)nc4)cc3c21 + Cc1cccc(N(C)C(=O)C2C(O)CCN2c2nc(C)cc(C(F)(F)F)c2C#N)c1
- IC50 (second compound 0.0316 µM): > 10 µM
- IC50 (second compound 0.1 µM): > 10 µM
- IC50 (second compound 0.316 µM): > 10 µM
- IC50 (second compound 1 µM): > 10 µM
- IC50 (second compound 3.16 µM): > 10 µM
- IC50 (second compound 10 µM): > 10 µM
- viability, T/C [1]: 98.6%
- viability, T/C [2]: 102%
- viability, T/C [3]: 84.6%
- viability, T/C [4]: 90.1%
- viability, T/C [5]: 102%
- viability, T/C [6]: 68.2%
- viability, T/C [7]: 96.2%
- viability, T/C [8]: 92.9%
- viability, T/C [9]: 90.4%
- viability, T/C [10]: 90.1%
- viability, T/C [11]: 97%
- viability, T/C [12]: 81.2%
- viability, T/C [13]: 93.9%
- viability, T/C [14]: 98.8%
- viability, T/C [15]: 89.2%
- viability, T/C [16]: 88.9%
- viability, T/C [17]: 94.1%
- viability, T/C [18]: 76.3%
- viability, T/C [19]: 92.5%
- viability, T/C [20]: 96.5%
- viability, T/C [21]: 89.1%
- viability, T/C [22]: 98.8%
- viability, T/C [23]: 93.5%
- viability, T/C [24]: 67.6%
- viability, T/C [25]: 113%
- viability, T/C [26]: 119%
- viability, T/C [27]: 90.3%
- viability, T/C [28]: 95.3%
- viability, T/C [29]: 90.4%
- viability, T/C [30]: 64.1%
- viability, T/C [31]: 87.9%
- viability, T/C [32]: 97%
- viability, T/C [33]: 106%
- viability, T/C [34]: 107%
- viability, T/C [35]: 79.3%
- viability, T/C [36]: 71.1%

SMILES: C#Cc1c(F)ccc2cc(O)cc(-c3ncc4c(N5CC6CCC(C5)N6)nc(OCC56CCCN5CC(F)C6)nc4c3F)c12 (stereo unspecified) + Cc1cccc(N(C)C(=O)C2C(O)CCN2c2nc(C)cc(C(F)(F)F)c2C#N)c1
- IC50 (second compound 0.0316 µM): > 10 µM
- IC50 (second compound 0.1 µM): > 10 µM
- IC50 (second compound 0.316 µM): > 10 µM
- IC50 (second compound 1 µM): > 10 µM
- IC50 (second compound 3.16 µM): > 10 µM
- IC50 (second compound 10 µM): > 10 µM
- viability, T/C [1]: 113%
- viability, T/C [2]: 102%
- viability, T/C [3]: 123%
- viability, T/C [4]: 120%
- viability, T/C [5]: 124%
- viability, T/C [6]: 93.9%
- viability, T/C [7]: 105%
- viability, T/C [8]: 122%
- viability, T/C [9]: 120%
- viability, T/C [10]: 125%
- viability, T/C [11]: 97.8%
- viability, T/C [12]: 85.5%
- viability, T/C [13]: 105%
- viability, T/C [14]: 108%
- viability, T/C [15]: 124%
- viability, T/C [16]: 99.2%
- viability, T/C [17]: 114%
- viability, T/C [18]: 75.5%
- viability, T/C [19]: 123%
- viability, T/C [20]: 109%
- viability, T/C [21]: 113%
- viability, T/C [22]: 113%
- viability, T/C [23]: 103%
- viability, T/C [24]: 74.6%
- viability, T/C [25]: 114%
- viability, T/C [26]: 99.9%
- viability, T/C [27]: 118%
- viability, T/C [28]: 111%
- viability, T/C [29]: 92%
- viability, T/C [30]: 78.1%
- viability, T/C [31]: 110%
- viability, T/C [32]: 108%
- viability, T/C [33]: 108%
- viability, T/C [34]: 105%
- viability, T/C [35]: 80.1%
- viability, T/C [36]: 64.2%
